Measured values reported in patent US20260250320A1, “LIPIDATED PEPTIDE INHIBITORS OF INTERLEUKIN-23 RECEPTOR” (Janssen Pharmaceutica NV, priority 2023, published 2026).
*1 amine or outer side, *2 acyl side, *3 side chain or, on linkers, in order; H or OH if unused. Where a SMILES comes first, the peptide text is derived from it. Bridges are numbered along the chain shown (N, C = ends). Side-chain parts run from the residue outwards. [ ]: non-standard residue; d: D form. The star is where a group is joined. ξ: configuration not given here. X14 = CC(=O)N(C)CCCC[C@H](CC(=O)C1(N*)CCOCC1)C(=O)N[C@@H](CC(N)=O)C(=O)N[C@@H](Cc1cccnc1)C(=O)N(C)CC(=O)N(C)C; Me3N+CH2CH2(OCH2CH2)4CO = C[N+](C)(C)CCOCCOCCOCCOCCC(=O)*; Me3N+(CH2)2O(CH2)2O(CH2)2CO = C[N+](C)(C)CCOCCOCCC(=O)*; X28 = CC(=O)[C@H](CCC(=O)*)NC(=O)CCCCCCCCCCCCCCCCC(=O)O; PEG12 = NCCOCCOCCOCCOCCOCCOCCOCCOCCOCCOCCOCCOCCC(=O)O; Trp(7-Me,2,3-dihydro) = Cc1cccc2c1NCC2C[C@H](N)C(=O)O; Trp(7-Me) = Cc1cccc2c(C[C@H](N)C(=O)O)c[nH]c12; C22 diacid = O=C(O)CCCCCCCCCCCCCCCCCCCCC(=O)*; C20 diacid = O=C(O)CCCCCCCCCCCCCCCCCCC(=O)*; X6 = CN(CC[C@H](N[*:1])C(=O)[*:2])[*:3]; Phe(4-Me) = Cc1ccc(C[C@H](N)C(=O)O)cc1; γGlu = O=C(O)[C@H](CCC(=O)[*:2])N[*:1]; 2Nal = N[C@@H](Cc1ccc2ccccc2c1)C(=O)O; PEG6 = NCCOCCOCCOCCOCCOCCOCCC(=O)O; ξAEF = NCCOc1ccc(CC(N)C(=O)O)cc1; 3Pal = N[C@@H](Cc1cccnc1)C(=O)O; Lys(Me) = CNCCCC[C@H](N)C(=O)O; NMeK = CN[C@@H](CCCCN)C(=O)O; Pen = CC(C)(S)[C@H](N)C(=O)O; Thp = NC1(C(=O)O)CCOCC1; X1 = C[N+](C)(C)CCCCC*; AEEA = NCCOCCOCC(=O)O; Sar = CNCC(=O)O

Key:
[1] = system: IL-23-stimulated phosphorylated STAT3 in peripheral blood mononuclear cells (PBMCs); experiment: PBMC pSTAT3 Assay; type: cell-based; conditions: PBMCs from healthy donors; 30 min preincubation with peptide; IL-23 5 ng/mL for 30 min; phospho-STAT3 by MSD
How it was run: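 Healthy-donor PBMCs expanded 4 days on anti-CD3 with 100 ng/mL IL-1β, starved ~4 h in RPMI-0.1% BSA, preincubated 30 min with peptide, then stimulated 30 min at 37 °C with 5 ng/mL IL-23. Lysate pSTAT3 measured by MSD phospho-STAT panel; IC50 derived.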

IL-23R = molecular target: T1, IL-23R (Homo sapiens, UniProt Q5VWK5); experiment: IL23R Reporter Assay; type: cell-based; conditions: HEK293 cells containing IL-23R, IL-12Rβ1 and STAT-inducible firefly luciferase reporter; 10 ng/mL IL-23 (EC90); 5 h
T1 construct: HEK293 cells containing IL-23R, IL-12Rβ1 and a firefly luciferase reporter gene driven by a STAT-inducible promoter (Promega); host or cells: HEK293
T1 sequence (Q5VWK5 24-629): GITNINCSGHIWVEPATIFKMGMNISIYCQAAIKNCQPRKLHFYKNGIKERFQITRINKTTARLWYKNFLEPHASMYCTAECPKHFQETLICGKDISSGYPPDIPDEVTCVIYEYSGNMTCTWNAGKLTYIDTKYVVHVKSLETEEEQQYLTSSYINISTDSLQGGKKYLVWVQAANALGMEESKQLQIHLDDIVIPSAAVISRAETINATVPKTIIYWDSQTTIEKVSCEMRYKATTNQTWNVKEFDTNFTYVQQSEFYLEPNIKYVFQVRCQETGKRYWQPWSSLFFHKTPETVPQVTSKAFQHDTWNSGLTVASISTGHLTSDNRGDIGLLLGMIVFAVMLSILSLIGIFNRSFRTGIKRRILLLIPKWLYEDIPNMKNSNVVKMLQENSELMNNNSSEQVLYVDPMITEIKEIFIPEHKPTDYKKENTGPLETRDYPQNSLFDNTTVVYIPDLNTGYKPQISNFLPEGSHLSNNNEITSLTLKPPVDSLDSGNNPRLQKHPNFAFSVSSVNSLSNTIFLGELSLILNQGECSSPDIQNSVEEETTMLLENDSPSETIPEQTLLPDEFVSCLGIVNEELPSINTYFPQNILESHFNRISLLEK
How it was run: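 HEK293 cells carrying IL-23R, IL-12Rβ1 and a STAT-driven firefly luciferase reporter (4000 cells/well) received compound, then 10 ng/mL IL-23 solution (EC90), and were incubated for 5 h at 37° C. BioGlo luminescence was normalised to IL-23 alone (0%) and 30 μM control inhibitor (100%). IC50 came from a 4-parameter Hill fit.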

| IC50 (IL-23R) [nM] | Structure (SMILES) | IC50 [1] [nM] |
| --- | --- | --- |
| < 50 | CC(=O)N(C)CCCC[C@H](CC(=O)C1(NC(=O)[C@H](Cc2ccc3ccccc3c2)NC(=O)[C@H](Cc2ccc(OCCCCC[N+](C)(C)C)cc2)NC(=O)[C@H]2NC(=O)[C@H](CCCCN(C)C(C)=O)NC(=O)[C@H](Cc3c[nH]c4c(C)cccc34)NC(=O)[C@H]([C@@H](C)O)NC(=O)[C@H](CC(=O)N(C)C)NC(=O)[C@@H](NC(=O)COCCOCCNC(=O)COCCOCCNC(=O)CC[C@H](NC(=O)CCCCCCCCCCCCCCCCCCCCC(=O)O)C(=O)O)C(C)(C)SSC2(C)C)CCOCC1)C(=O)N[C@@H](CC(N)=O)C(=O)N[C@@H](Cc1cccnc1)C(=O)N(C)CC(=O)N(C)C [compound 119, HOC20gEPEG2PEG2CO-Pen(3)-N(N(Me)2)-T-7MeW-K(NMeAc)-Pen(3)-TMAPF-2Nal-THP-K(NMeAc)-N-3Pya-Sar-CON(Me)2] ({C22 diacid-γGlu-AEEA-AEEA}-[Pen]D(NMe2)T[Trp(7-Me)][Lys(Me)](Ac)[Pen]Y(X1)[2Nal]-X14; disulfide 1-6) | < 0.5 |
| 50 to 500 | CC(=O)NCCCC[C@@H]1NC(=O)[C@H](CC2CNc3c(C)cccc32)NC(=O)[C@H]([C@@H](C)O)NC(=O)[C@H](CC(N)=O)NC(=O)[C@@H](NC(C)=O)C(C)(C)SSC(C)(C)[C@@H](C(=O)N[C@@H](Cc2ccc(C)cc2)C(=O)N[C@@H](Cc2ccc3ccccc3c2)C(=O)NC2(C(=O)N[C@@H](CCCCNC(=O)CCOCCOCCOCCOCCOCCOCCOCCOCCOCCOCCOCCOCCNC(=O)CC[C@H](NC(=O)CCCCCCCCCCCCCCCCCCC(=O)O)C(=O)O)C(=O)N[C@@H](CC(N)=O)C(=O)N[C@@H](Cc3cccnc3)C(=O)N(C)CC(N)=O)CCOCC2)NC1=O (stereo partly drawn) [compound 162, MeCO-Pen(3)-N-T-7MeW-K(Ac)-Pen(3)-AEF-2Nal-THP-K(PEG12gEC20OH)-N-3Pya-Sar-CONH2] (Ac-[Pen]NT[Trp(7-Me,2,3-dihydro)]K(Ac)[Pen][Phe(4-Me)][2Nal][Thp]K([PEG12-γGlu-C20 diacid])N[3Pal][Sar]-NH2; disulfide 1-6) | < 0.5 |
| 50 to 500 | CC(=O)[C@H](CCC(=O)NCCOCCOCCOCCOCCOCCOCCC(=O)NCCCC[C@@H](C(N)=O)N(C)C(=O)[C@H](Cc1cccnc1)NC(=O)[C@H](CC(N)=O)NC(=O)[C@H](CCC(=O)O)NC(=O)C1(NC(=O)[C@H](Cc2ccc3ccccc3c2)NC(=O)C(Cc2ccc(OCCN)cc2)NC(=O)[C@H]2NC(=O)[C@H](CCN(C)C(=O)CCOCCOCCOCCOCC[N+](C)(C)C)NC(=O)[C@H](Cc3c[nH]c4c(C)cccc34)NC(=O)[C@H]([C@@H](C)O)NC(=O)[C@H](CC(=O)N(C)C)NC(=O)[C@@H](NC(=O)CCOCCOCCOCCOCC[N+](C)(C)C)C(C)(C)SSC2(C)C)CCOCC1)NC(=O)CCCCCCCCCCCCCCCCC(=O)O (some centres unmarked) [compound 90, cPEG5aCO-Pen(3)-N(N(Me)2)-T-7MeW-Dab(NMecPEG5a)-Pen(3)-AEF-2Nal-THP-E-N-3Pya-NMeK(PEG6gEC18OH)-CONH2] ({Me3N+CH2CH2(OCH2CH2)4CO}-[Pen]D(NMe2)T[Trp(7-Me)][X6](Me3N+CH2CH2(OCH2CH2)4CO)[Pen][ξAEF][2Nal][Thp]EN[3Pal][NMeK]([PEG6-X28])-NH2; disulfide 1-6) | < 0.5 |
| 50 to 500 | CC(=O)N(C)CCCC[C@@H]1NC(=O)[C@H](Cc2c[nH]c3c(C)cccc23)NC(=O)[C@H]([C@@H](C)O)NC(=O)[C@H](CCCCNC(=O)COCCOCCNC(=O)COCCOCCNC(=O)CC[C@H](NC(=O)CCCCCCCCCCCCCCCCCCC(=O)O)C(=O)O)NC(=O)[C@@H](NC(=O)CCOCCOCC[N+](C)(C)C)C(C)(C)SSC(C)(C)[C@@H](C(=O)N[C@@H](Cc2ccc(OCCCCC[N+](C)(C)C)cc2)C(=O)N[C@@H](Cc2ccc3ccccc3c2)C(=O)NC2(C(=O)N[C@@H](CCCCN(C)C(C)=O)C(=O)N[C@@H](CC(N)=O)C(=O)N[C@@H](Cc3cccnc3)C(=O)N(C)CC(=O)N(C)C)CCOCC2)NC1=O [compound 128, cPEG3aCO-Pen(3)-K(PEG2PEG2gEC20OH)-T-7MeW-K(NMeAc)-Pen(3)-TMAPF-2Nal-THP-K(NMeAc)-N-3Pya-Sar-CON(Me)2] ({Me3N+(CH2)2O(CH2)2O(CH2)2CO}-[Pen]K([AEEA-AEEA-γGlu-C20 diacid])T[Trp(7-Me)][Lys(Me)](Ac)[Pen]Y(X1)[2Nal][Thp][Lys(Me)](Ac)N[3Pal][Sar]-NMe2; disulfide 1-6) | 0.5 to 5 |
